Source: patent US4368261A, “Method and reagent for the determination of triglycerides” (priority 1979, dated 1983)

What was measured:
Test in all cases: Stability of glycerokinase in the presence of dichlorophenol at 25° C. (Table 2)
Type in all cases: biochemical
[1] = target: glycerokinase (GK) from Bacillus stearothermophilis (Geobacillus stearothermophilus, UniProt A0ACH1EBP7)
Source text: (§1) It is known that Bacillus stearothermophilis contains a glycerokinase (see J. Appl. Bac., 38, 301-304/1975). However, it could not be deduced from this that this glycerokinase would display a good stability towards the mentioned group of activators which would permit its use together with these activators.

[2] = target: T1, glycerokinase (GK) from Escherichia coli (commercially available) (Escherichia coli, UniProt P0A6F3)
T1 construct: purchased
Source text: as §1

[3] = system: glycerokinase (GK, E.C. 2.7.1.30) from Candida mycoderma
Source text: as §1

dichlorophenol
residual activity after 30 min. ([1]; 2 mM dichlorophenol): 100%
residual activity after 60 min. ([1]; 2 mM dichlorophenol): 100%
residual activity after 30 min. ([1]; 5 mM dichlorophenol): 100%
residual activity after 60 min. ([1]; 5 mM dichlorophenol): 100%
residual activity after 30 min. ([2]; 2 mM dichlorophenol): 93%
residual activity after 60 min. ([2]; 2 mM dichlorophenol): 87%
residual activity after 30 min. ([2]; 5 mM dichlorophenol): 81%
residual activity after 60 min. ([2]; 5 mM dichlorophenol): 58%
residual activity after 30 min. ([3]; 2 mM dichlorophenol): 68%
residual activity after 60 min. ([3]; 2 mM dichlorophenol): 56%
residual activity after 30 min. ([3]; 5 mM dichlorophenol): 18%
residual activity after 60 min. ([3]; 5 mM dichlorophenol): 7%
